Source: PubChem BioAssay (NCI)
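These data come from cells grown in 96-well plates and exposed to compound for 48 hours at five concentrations. GI50 is the concentration that inhibits growth by half. At the TGI there is no net growth.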

Columns and labels:
Experiment in all cases: NCI anticancer screen, dose series, 48 h
[1] = tested on: HL-60(TB) leukemia
[2] = tested on: NCI-H226 lung
[3] = tested on: HCT-116 colon
[4] = tested on: MALME-3M melanoma
[5] = tested on: SNB-19 CNS
[6] = tested on: A549 NSCLC
[7] = tested on: M14 melanoma
[8] = tested on: U251 CNS
[9] = tested on: EKVX NSCLC
[10] = tested on: DMS 114 small cell lung
[11] = tested on: HCC-2998 colon
[12] = tested on: DMS 273 small cell lung
[13] = tested on: SK-MEL-5 melanoma
[14] = tested on: NCI-H23 lung
[15] = tested on: OVCAR-3 ovarian
[16] = tested on: LXFL 529 NSCLC
[17] = tested on: 786-0 renal
[18] = tested on: DLD-1 colon
[19] = tested on: UACC-257 melanoma
[20] = tested on: SF-539 CNS
[21] = tested on: SN12C renal
[22] = tested on: LOX IMVI melanoma
[23] = tested on: K-562 leukemia
[24] = tested on: SNB-75 CNS
[25] = tested on: UO-31 renal
[26] = tested on: NCI-H460 lung
[27] = tested on: CCRF-CEM leukemia
[28] = tested on: HOP-62 NSCLC
[29] = tested on: KM12 colon
[30] = tested on: SW-620 colon
[31] = tested on: CAKI-1 renal
[32] = tested on: MOLT-4 leukemia
[33] = tested on: A498 renal
[34] = tested on: M19-MEL melanoma
[35] = tested on: RXF 393 renal
[36] = tested on: SF-295 CNS
[37] = tested on: RPMI-8226 leukemia
[38] = tested on: HT29 colon
[39] = tested on: OVCAR-4 ovarian
[40] = tested on: ACHN renal
[41] = tested on: KM20L2 colon
[42] = tested on: IGROV1 ovarian
[43] = tested on: COLO 205 colon
[44] = tested on: UACC-62 melanoma
[45] = tested on: NCI-H522 lung
[46] = tested on: RXF-631 renal
[47] = tested on: SK-MEL-28 melanoma
[48] = tested on: SF-268 CNS
[49] = tested on: SK-MEL-2 melanoma
[50] = tested on: TK-10 renal
[51] = tested on: OVCAR-8 ovarian
[52] = tested on: SNB-78 CNS
[53] = tested on: OVCAR-5 ovarian
[54] = tested on: HCT-15 colon
[55] = tested on: SK-OV-3 ovarian
[56] = tested on: HOP-92 NSCLC
[57] = tested on: SR leukemia

## CC(=O)Nc1ccc(/C=C/C(=O)c2sc(-n3nc(-c4ccccc4)cc3-c3ccccc3)nc2C)cc1
[1]
  GI50: > 100 µM
  TGI: > 100 µM
[2]
  GI50: > 100 µM
  TGI: > 100 µM
[3]
  GI50: > 100 µM
  TGI: > 100 µM
[4]
  GI50: > 100 µM
  TGI: > 100 µM
[5]
  GI50: > 100 µM
  TGI: > 100 µM
[6]
  GI50: > 100 µM
  TGI: > 100 µM
[7]
  GI50: > 100 µM
  TGI: > 100 µM
[8]
  GI50: > 100 µM
  TGI: > 100 µM
[9]
  GI50: > 100 µM
  TGI: > 100 µM
[10]
  TGI: > 100 µM
[11]
  GI50: > 100 µM
  TGI: > 100 µM
[12]
  GI50: > 100 µM
  TGI: > 100 µM
[13]
  TGI: > 100 µM
[14]
  GI50: > 100 µM
  TGI: > 100 µM
[15]
  GI50: > 100 µM
  TGI: > 100 µM
[16]
  GI50: > 100 µM
  TGI: > 100 µM
[17]
  GI50: > 100 µM
  TGI: > 100 µM
[18]
  GI50: > 100 µM
  TGI: > 100 µM
[19]
  TGI: > 100 µM
[20]
  GI50: > 100 µM
  TGI: > 100 µM
[21]
  GI50: > 100 µM
  TGI: > 100 µM
[22]
  GI50: > 100 µM
  TGI: > 100 µM
[23]
  GI50: > 100 µM
  TGI: > 100 µM
[24]
  GI50: > 100 µM
  TGI: > 100 µM
[25]
  GI50: > 100 µM
  TGI: > 100 µM
[26]
  GI50: > 100 µM
  TGI: > 100 µM
[27]
  GI50: > 100 µM
  TGI: > 100 µM
[28]
  GI50: > 100 µM
  TGI: > 100 µM
[29]
  TGI: > 100 µM
[30]
  GI50: > 100 µM
  TGI: > 100 µM
[31]
  GI50: > 100 µM
  TGI: > 100 µM
[32]
  GI50: > 100 µM
  TGI: > 100 µM
[33]
  GI50: > 100 µM
  TGI: > 100 µM
[34]
  GI50: > 100 µM
  TGI: > 100 µM
[35]
  GI50: > 100 µM
  TGI: > 100 µM
[36]
  GI50: > 100 µM
  TGI: > 100 µM
[37]
  GI50: > 100 µM
  TGI: > 100 µM
[38]
  TGI: > 100 µM
[39]
  TGI: > 100 µM
[40]
  GI50: > 100 µM
  TGI: > 100 µM
[41]
  GI50: > 100 µM
  TGI: > 100 µM
[42]
  GI50: > 100 µM
  TGI: > 100 µM
[43]
  GI50: > 100 µM
  TGI: > 100 µM
[44]
  GI50: > 100 µM
  TGI: > 100 µM
[45]
  TGI: > 100 µM
[46]
  GI50: > 100 µM
  TGI: > 100 µM
[47]
  GI50: > 100 µM
  TGI: > 100 µM
[48]
  GI50: > 100 µM
  TGI: > 100 µM
[49]
  GI50: > 100 µM
  TGI: > 100 µM
[50]
  GI50: > 100 µM
  TGI: > 100 µM
[51]
  GI50: > 100 µM
  TGI: > 100 µM

## COc1cc(Br)c(C2OCCCO2)cc1OCc1ccccc1
[1]
  TGI: > 100 µM
[2]
  TGI: > 100 µM
[3]
  TGI: > 100 µM
[5]
  TGI: > 100 µM
[6]
  TGI: > 100 µM
[7]
  TGI: > 100 µM
[8]
  TGI: > 100 µM
[9]
  TGI: > 100 µM
[10]
  TGI: > 100 µM
[12]
  TGI: > 100 µM
[52]
  TGI: > 100 µM
[53]
  TGI: > 100 µM
[13]
  TGI: > 100 µM
[14]
  TGI: > 100 µM
[15]
  TGI: > 100 µM
[16]
  TGI: > 100 µM
[17]
  TGI: > 100 µM
[18]
  TGI: > 100 µM
[20]
  TGI: > 100 µM
[21]
  TGI: > 100 µM
[22]
  TGI: > 100 µM
[23]
  TGI: > 100 µM
[24]
  TGI: > 100 µM
[25]
  TGI: > 100 µM
[26]
  TGI: > 100 µM
[27]
  TGI: > 100 µM
[28]
  TGI: > 100 µM
[29]
  TGI: > 100 µM
[54]
  TGI: > 100 µM
[30]
  TGI: > 100 µM
[32]
  TGI: > 100 µM
[33]
  TGI: > 100 µM
[34]
  TGI: > 100 µM
[35]
  TGI: > 100 µM
[36]
  TGI: > 100 µM
[37]
  TGI: > 100 µM
[38]
  TGI: > 100 µM
[39]
  TGI: > 100 µM
[40]
  TGI: > 100 µM
[41]
  TGI: > 100 µM
[42]
  TGI: > 100 µM
[43]
  TGI: > 100 µM
[55]
  TGI: > 100 µM
[44]
  TGI: > 100 µM
[45]
  TGI: > 100 µM
[46]
  TGI: > 100 µM
[47]
  TGI: > 100 µM
[48]
  TGI: > 100 µM
[49]
  TGI: > 100 µM
[50]
  TGI: > 100 µM
[56]
  TGI: 64.3 µM
[51]
  TGI: > 100 µM

## CC[C@H]1CNC(=O)CC1CC(=O)OC (some centres undefined)
[2]
  TGI: > 100 µM
[3]
  TGI: > 100 µM
[4]
  TGI: > 100 µM
[5]
  TGI: > 100 µM
[6]
  TGI: > 100 µM
[7]
  TGI: > 100 µM
[8]
  TGI: > 100 µM
[9]
  TGI: > 100 µM
[10]
  TGI: > 100 µM
[11]
  TGI: > 100 µM
[12]
  TGI: > 100 µM
[52]
  TGI: > 100 µM
[53]
  TGI: > 100 µM
[13]
  TGI: > 100 µM
[14]
  TGI: > 100 µM
[17]
  TGI: > 100 µM
[18]
  TGI: > 100 µM
[19]
  TGI: > 100 µM
[20]
  TGI: > 100 µM
[21]
  TGI: > 100 µM
[22]
  TGI: > 100 µM
[24]
  TGI: > 100 µM
[25]
  TGI: > 100 µM
[26]
  TGI: > 100 µM
[28]
  TGI: > 100 µM
[29]
  TGI: > 100 µM
[54]
  TGI: > 100 µM
[30]
  TGI: > 100 µM
[31]
  TGI: > 100 µM
[32]
  TGI: > 100 µM
[33]
  TGI: > 100 µM
[35]
  TGI: > 100 µM
[36]
  TGI: > 100 µM
[38]
  TGI: > 100 µM
[39]
  TGI: > 100 µM
[57]
  TGI: > 100 µM
[40]
  TGI: > 100 µM
[42]
  TGI: > 100 µM
[55]
  TGI: > 100 µM
[44]
  TGI: > 100 µM
[45]
  TGI: > 100 µM
[46]
  TGI: > 100 µM
[47]
  TGI: > 100 µM
[48]
  TGI: > 100 µM
[49]
  TGI: > 100 µM
[50]
  TGI: > 100 µM
[51]
  TGI: > 100 µM
